Laboratory results: PubChem BioAssay (NCI)
Several values for one entry are separate records, joined by “and”; a condition that tells them apart may be missing. Equal entries are not always repeated.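 Interpolation was linear, between the two tested concentrations surrounding the appropriate level; five concentrations were tested over 48 hours in 96-well plates. GI50 is the concentration that inhibits growth by half. TGI is the concentration that stops growth completely.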

Assays:
Assay in all cases: NCI-60 cell line screen, 48 h
A498 renal = system: A498 renal
BT-549 breast = system: BT-549 breast
COLO 205 colon = system: COLO 205 colon
HOP-18 NSCLC = system: HOP-18 NSCLC
M14 melanoma = system: M14 melanoma
MCF7 breast = system: MCF7 breast
MOLT-4 leukemia = system: MOLT-4 leukemia
OVCAR-8 ovarian = system: OVCAR-8 ovarian
SF-295 CNS = system: SF-295 CNS
SNB-78 CNS = system: SNB-78 CNS

SMILES | GI50 (A498 renal) | TGI (A498 renal) | TGI (BT-549 breast) | GI50 (COLO 205 colon) | TGI (COLO 205 colon) | GI50 (HOP-18 NSCLC) | GI50 (M14 melanoma) | TGI (M14 melanoma) | TGI (MCF7 breast) | GI50 (MOLT-4 leukemia) | GI50 (OVCAR-8 ovarian) | TGI (OVCAR-8 ovarian) | GI50 (SF-295 CNS) | TGI (SF-295 CNS) | TGI (SNB-78 CNS) | TGI (HOP-18 NSCLC) | TGI (MOLT-4 leukemia)
C[C@@H]1C[C@@H](O)[C@]2(O)O[C@@H]3C[C@@]4(C=O)[C@@H](CC[C@@H]5[C@@H]4CC[C@]4(C)[C@@H](C6=CC(=O)OC6)CC[C@]54O)C[C@H]3O[C@@H]2O1 | 0.00998 µM | 0.115 µM and 0.0399 µM | 0.179 µM | 0.108 µM and 0.025 µM | 0.0826 µM and 0.277 µM and 0.0918 µM | 0.005 µM | 0.0891 µM and 0.0324 µM | 0.074 µM and 0.232 µM and 0.2 µM | 0.16 µM | 0.00699 µM and 0.005 µM | 0.0393 µM and 0.0143 µM | 0.057 µM and 0.13 µM and 0.116 µM | 0.0365 µM and 0.00869 µM | 0.0616 µM and 0.189 µM and 0.139 µM | 0.211 µM | – | –
O=C(CNc1nncs1)NO | – | > 100 µM | – | – | > 100 µM | – | – | > 100 µM | – | – | – | > 100 µM | – | > 100 µM | > 100 µM | > 100 µM | > 100 µM
CC1=C(C)C(=O)c2c(cc3ccc4ccccc4n23)C1=O | – | > 100 µM | – | – | > 100 µM | – | – | > 100 µM | – | – | – | > 100 µM | – | > 100 µM | > 100 µM | > 100 µM | > 100 µM
CC(=O)O/C=C(/C=C/OC(C)=O)C(C/C=C(\C)C#CC=C(C)C)OC(C)=O (stereo unspecified) | – | > 100 µM | – | – | 68.5 µM | – | – | 98.6 µM | – | – | – | > 100 µM | – | > 100 µM | 72.2 µM | > 100 µM | > 100 µM
CCOc1ccccc1NC(=O)C(=O)CC(=O)c1c(C)n([O-])c2ccccc2[n+]1=O | – | > 100 µM | – | – | > 100 µM | – | – | > 100 µM | – | – | – | > 100 µM | – | > 100 µM | > 100 µM | > 100 µM | > 100 µM
O=C(O)CSc1n[nH]c(-c2ccc(O)cc2)n1 | – | > 100 µM | – | – | > 100 µM | – | – | > 100 µM | – | – | – | > 100 µM | – | > 100 µM | > 100 µM | > 100 µM | > 100 µM
Nn1c(-c2ccccc2)nc2ccc(Br)cc2c1=O | – | > 100 µM | – | – | > 100 µM | – | – | > 100 µM | – | – | – | > 100 µM | – | > 100 µM | > 100 µM | > 100 µM | 50.5 µM
Cc1cc(C)nc(NS(=O)(=O)c2ccc(Nc3c4ccccc4nc4c(C(=O)Nc5ccc(S(=O)(=O)N=C(N)N)cc5)ccc(Cl)c34)cc2)n1 | – | > 100 µM | – | – | > 100 µM | – | – | > 100 µM | – | – | – | 33.4 µM | – | > 100 µM | > 100 µM | > 100 µM | 64.8 µM
